Data set [1] concerns Huh-7. Put plainly: Cytotoxicity against human HuH7 cells after 48 hrs by resazurin assay. It is filed as functional, cell-based. Conditions: Huh-7, 48 h.
In data set [2] the test system is PANC-1. Description: Cytotoxicity against human PANC1 cells after 48 hrs by resazurin assay. The data set is classed as functional, cell-based. Conditions: PANC-1, 48 h.
Data set [3] in a line: Selectivity index, ratio of IC50 for human RPE1 cells to IC50 for human CCRF-CEM cells. It is filed as toxicity. Conditions: RPE1 cells versus CCRF-CEM cells, read-out: Ratio IC50.
The next data set deals with CCRF-CEM. Description: Cytotoxicity against human CCRF-CEM cells after 48 hrs by resazurin assay. The data set is classed as functional, cell-based.
Data set [4] in a line: Selectivity index, ratio of IC50 for human RPE1 cells to IC50 for human PANC1 cells. It is filed as toxicity. Conditions: RPE1 cells versus PANC1 cells, read-out: Ratio IC50.
A short description of data set [5]: Selectivity index, ratio of IC50 for human RPE1 cells to IC50 for human HuH7 cells. As to conditions: RPE1 cells versus HuH7 cells, read-out: Ratio IC50. The data set is classed as toxicity.
A further data set has as its system TERT-RPE1. Description: Cytotoxicity against human RPE1 cells after 48 hrs by resazurin assay. It is filed as cell-based. As to conditions: RPE-1, 48 h.
Data set [6] concerns Huh-7. Description: Induction of apoptosis in human HuH7 cells assessed as caspase-3/7 activation after 24 hrs by Caspase-Glo assay. It is filed as functional, cell-based.
Data set [7] relates to PANC-1. Put plainly: Induction of apoptosis in human PANC1 cells assessed as caspase-3/7 activation after 24 hrs by Caspase-Glo assay. It is filed as functional, cell-based.
The test system of data set [8] is Huh-7. Put plainly: Upregulation of UGT1A1 gene expression in human HuH7 cells after 48 hrs by micro-array analysis relative to control. The data set is classed as functional.
For data set [9], the system named is Huh-7. Put plainly: Downregulation of FSCN1 gene expression in human HuH7 cells after 48 hrs by micro-array analysis relative to control. It is filed as functional.
Data set [10] deals with Huh-7. Put plainly: Downregulation of TAGLN gene expression in human HuH7 cells after 48 hrs by micro-array analysis relative to control. It is filed as functional.
For data set [11], the system named is Huh-7. Put plainly: Upregulation of UGT2B15 gene expression in human HuH7 cells after 48 hrs by micro-array analysis relative to control. It is filed as functional.
Data set [12] relates to Huh-7. Description: Downregulation of IFI27 gene expression in human HuH7 cells after 48 hrs by micro-array analysis relative to control. It is filed as functional.
In data set [13] the test system is Huh-7. Description: Downregulation of THBS1 gene expression in human HuH7 cells after 48 hrs by micro-array analysis relative to control. It is filed as functional.
Data set [14] has as its system Huh-7. Put plainly: Upregulation of SLC26A3 gene expression in human HuH7 cells after 48 hrs by micro-array analysis relative to control. The data set is classed as functional.
Data set [15] deals with Huh-7. Description: Downregulation of SOCS2 gene expression in human HuH7 cells after 48 hrs by micro-array analysis relative to control. The data set is classed as functional.
Data set [16] concerns Huh-7. Put plainly: Upregulation of DNASE1 gene expression in human HuH7 cells after 48 hrs by micro-array analysis relative to control. The data set is classed as functional.
Data set [17] concerns Huh-7. Description: Upregulation of UGT2B7 gene expression in human HuH7 cells after 48 hrs by micro-array analysis relative to control. It is filed as functional.
For data set [18], the system named is Huh-7. Description: Downregulation of GIP3 gene expression in human HuH7 cells after 48 hrs by micro-array analysis relative to control. The data set is classed as functional.
Data set [19] relates to Huh-7. Description: Upregulation of UGT2B17 gene expression in human HuH7 cells after 48 hrs by micro-array analysis relative to control. The data set is classed as functional.
The subject of data set [20] is Huh-7. Put plainly: Upregulation of MUCDH1 gene expression in human HuH7 cells after 48 hrs by micro-array analysis relative to control. It is filed as functional.

The record followed here is ChEMBL document CHEMBL4251555, “Synthesis, antitumor evaluation and microarray study of some new pyrazolo[3,4-d][1,2,3]triazine derivatives” (Eur J Med Chem, 2017).

Structures are written as SMILES.

Turning to `CCOc1ccc(-n2nnc3n[nH]c(Nc4ccccc4)c3c2=O)cc1`, the IC50 is 9.39 µM in the data set with Huh-7 [1], 13.1 µM with PANC-1 [2], 5.92 µM in the data set on CCRF-CEM and more than 100 µM with TERT-RPE1. Moreover, the selectivity ratio is more than 16.9 in data set [3], more than 7.6 in [4] and more than 10.6 in data set [5].

On to `CCOc1ccc(NC(=O)/C(C#N)=C(\NC)SC)cc1`, for which the Activity result with Huh-7 [6] and with PANC-1 [7] was “Dose-dependent effect” in each case. Further, the IC50 with Huh-7 [1] is 5.78 µM; in the data set on PANC-1 [2], 26.4 µM; in the data set with CCRF-CEM it was 9.94 µM; in the data set with TERT-RPE1, more than 100 µM. In addition, the figures for the selectivity ratio in data set [3], in data set [4] and in data set [5] were more than 10.1, more than 3.8 and more than 17.3, respectively.

Take `CCOc1ccc(NC(=O)/C(C#N)=C(\Nc2ccccc2)SC)cc1`: the IC50 in the data set on Huh-7 [1] was 25.3 µM; in the data set with PANC-1 [2], 49.3 µM; with CCRF-CEM it was 20.3 µM; in the data set on TERT-RPE1 it was more than 100 µM. The selectivity ratio is more than 4.9 in [3], more than 2 in data set [4] and more than 4 in [5].

`CCOc1ccc(-n2nnc3n[nH]c(NC45CC6CC(CC(C6)C4)C5)c3c2=O)cc1`: the IC50 in the data set on Huh-7 [1] is 23.2 µM; in the data set on PANC-1 [2] it was 4.41 µM; in the data set with CCRF-CEM, 15.6 µM; in the data set on TERT-RPE1, more than 100 µM. The selectivity ratio in data set [3] was more than 6.4; in data set [4], more than 22.7; in [5] it was more than 4.3.

In the case of `CCOc1ccc(-n2nnc3n[nH]c(NC)c3c2=O)cc1`, the Activity result in the data set on Huh-7 [6] and with PANC-1 [7] was “Dose-dependent effect” throughout. The IC50 in the data set on Huh-7 [1] was 7.01 µM; in the data set on PANC-1 [2], 9.92 µM; with CCRF-CEM it was 12.4 µM; in the data set with TERT-RPE1 it was more than 100 µM. In addition, the selectivity ratio is more than 8.1 in data set [3], more than 10.1 in data set [4] and more than 14.3 in data set [5].

As for `CCOc1ccc(NC(=O)c2c(N)n[nH]c2NC)cc1`, the IC50 in the data set with Huh-7 [1] was 21.8 µM; in the data set on PANC-1 [2], 31 µM; in the data set with CCRF-CEM, 7.9 µM; with TERT-RPE1, more than 100 µM. Further, the results for the selectivity ratio in [3], in data set [4] and in [5] were more than 12.7, more than 3.2 and more than 4.6, respectively.

Regarding `CCOc1ccc(NC(=O)CC#N)cc1`, the IC50 was 21.5 µM with Huh-7 [1], 43.9 µM with PANC-1 [2], 14.1 µM in the data set with CCRF-CEM and more than 100 µM with TERT-RPE1. Also, the selectivity ratio in [3] is more than 7.1; in [4], more than 2.3; in data set [5], more than 4.6.

For `CCNc1[nH]nc2nnn(-c3ccc(OCC)cc3)c(=O)c12`, the IC50 is 14.4 µM with Huh-7 [1], 16.1 µM with PANC-1 [2], 15.2 µM with CCRF-CEM and more than 100 µM with TERT-RPE1. Besides, the selectivity ratio was more than 6.6 in data set [3], more than 6.2 in data set [4] and more than 6.9 in [5].

`COc1cccc2c1C(=O)c1c(O)c3c(c(O)c1C2=O)C[C@@](O)(C(=O)CO)C[C@@H]3O[C@H]1C[C@H](N)[C@H](O)[C@H](C)O1` [DOXORUBICIN]: the half-maximal inhibitory concentration (IC50) in the data set with Huh-7 [1] worked out at 5.43 µM; in the data set on TERT-RPE1, 14 µM.

For `CCN/C(SC)=C(/C#N)C(=O)Nc1ccc(OCC)cc1`, the IC50 with Huh-7 [1] is 16.4 µM; in the data set on PANC-1 [2] it was 41.6 µM; in the data set on CCRF-CEM, 9.89 µM; in the data set on TERT-RPE1, more than 100 µM. For the same compound, the selectivity ratio in data set [3] is more than 10.1; in [4], more than 2.4; in [5], more than 6.1.

Take `CCOc1ccc(NC(=O)c2c(N)n[nH]c2NC23CC4CC(CC(C4)C2)C3)cc1`: the IC50 with Huh-7 [1] worked out at 10.6 µM; in the data set with PANC-1 [2], 13.2 µM; in the data set on CCRF-CEM, 15.2 µM; in the data set with TERT-RPE1, 81.2 µM. In addition, the selectivity ratio was 5.3 in [3], 6.2 in data set [4] and 7.6 in data set [5].

In the case of `CCNc1[nH]nc(N)c1C(=O)Nc1ccc(OCC)cc1`, the IC50 with Huh-7 [1] is 27 µM; with PANC-1 [2] it was 14.8 µM; in the data set on CCRF-CEM, 14 µM; in the data set on TERT-RPE1 it was more than 100 µM. Besides, the selectivity ratio in data set [3] was more than 7.2; in [4], more than 6.8; in [5] it was more than 3.7.

As for `C=CCNc1[nH]nc2nnn(-c3ccc(OCC)cc3)c(=O)c12`, the “fold change (FC)” value in the data set on Huh-7 [8] is on record as “>=3 - 6”; in the data set with Huh-7 [9], more than 4; in the data set on Huh-7 [10], more than 4; with Huh-7 [11], “>=3 - 6”; with Huh-7 [12] it was more than 4; in the data set with Huh-7 [13], more than 4. Also, the “fold change (FC)” value with Huh-7 [14] was “>=3 - 6”; with Huh-7 [15], more than 4; with Huh-7 [16], “>=3 - 6”; in the data set on Huh-7 [17], “>=3 - 6”; in the data set with Huh-7 [18], more than 4; with Huh-7 [19] it was “>=3 - 6”. Besides, the “fold change (FC)” value in the data set on Huh-7 [20] is recorded as “>=3 - 6”. The Activity entry in the data set with Huh-7 [6] and in the data set with PANC-1 [7] was “Dose-dependent effect” throughout. Besides, the IC50 in the data set with Huh-7 [1] is 4.94 µM; in the data set with PANC-1 [2], 13.3 µM; in the data set on CCRF-CEM, 4.73 µM; in the data set on TERT-RPE1, more than 100 µM. For the same compound, the figures for the selectivity ratio in data set [3], in [4] and in [5] were more than 21.2, more than 7.5 and more than 20.3, respectively.

As for `C=CCN/C(SC)=C(/C#N)C(=O)Nc1ccc(OCC)cc1`, the Activity result in the data set on Huh-7 [6] and in the data set with PANC-1 [7] was “Dose-dependent effect” throughout. For the same compound, the IC50 with Huh-7 [1] was 8.85 µM; in the data set with PANC-1 [2], 21.8 µM; with CCRF-CEM, 18.5 µM; in the data set with TERT-RPE1 it was more than 100 µM. The values for the selectivity ratio in data set [3], in data set [4] and in [5] were more than 5.4, more than 4.6 and more than 11.3, respectively.

For the compound `C=CCNc1[nH]nc(N)c1C(=O)Nc1ccc(OCC)cc1`, the IC50 was 22 µM in the data set with Huh-7 [1], 30.8 µM with PANC-1 [2], 6.56 µM with CCRF-CEM and more than 100 µM in the data set with TERT-RPE1. Besides, the selectivity ratio was more than 15.2 in data set [3], more than 3.2 in [4] and more than 4.5 in data set [5].

For `CCOc1ccc(NC(=O)/C(C#N)=C(\NC23CC4CC(CC(C4)C2)C3)SC)cc1`, the IC50 in the data set on Huh-7 [1] was 10 µM; in the data set with PANC-1 [2] it was 23.7 µM; in the data set with CCRF-CEM it was 17.6 µM; in the data set with TERT-RPE1, more than 100 µM. Further, the values for the selectivity ratio in data set [3], in data set [4] and in data set [5] were more than 5.7, more than 4.2 and more than 10, respectively.

Consider `CCOc1ccc(NC(=O)c2c(N)n[nH]c2Nc2ccccc2)cc1`, for which the IC50 with Huh-7 [1] is 4.32 µM; in the data set on PANC-1 [2], 21 µM; in the data set with CCRF-CEM it was 4.47 µM; with TERT-RPE1, 67.8 µM. The selectivity ratio in data set [3] turned out to be 15.1; in data set [4], 3.2; in [5] it was 15.7.
